Results reported in US4780281A, “Method for assay of peroxidase enzyme or reducing substrate activity” (Wayne State University, priority 1985, dated 1988).

Legend:
glutathione peroxidase = target: T1, glutathione peroxidase (Homo sapiens, UniProt P07203); test: PPHP as peroxidase substrate; type: biochemical
T1 sequence (P07203 1-203): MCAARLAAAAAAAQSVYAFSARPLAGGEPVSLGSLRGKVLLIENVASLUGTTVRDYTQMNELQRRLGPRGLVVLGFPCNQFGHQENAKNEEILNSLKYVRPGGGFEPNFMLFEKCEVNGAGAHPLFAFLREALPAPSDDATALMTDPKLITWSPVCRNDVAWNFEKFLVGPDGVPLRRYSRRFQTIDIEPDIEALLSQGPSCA
Text: (§1) A practical method is described for the determination of peroxidase enzyme activity that monitors the ability of enzyme preparations to reduce PPHP in the presence of a reducing substrate. […] The alcohol product and hydroperoxide substrate are conveniently separated by HPLC and reliably quantitated by ultraviolet detection. These properties make PPHP an ideal substrate for the assay. […] Thus, the procedure is a general assay for peroxidase activity.

lactoperoxidase = lactoperoxidase (Bos taurus, UniProt P80025); test: PPHP as peroxidase substrate; type: biochemical
Text: as §1

catalase = target: T2, catalase (Homo sapiens, UniProt P04040); test: PPHP as peroxidase substrate; type: biochemical
T2 sequence (P04040 2-527 limits assumed): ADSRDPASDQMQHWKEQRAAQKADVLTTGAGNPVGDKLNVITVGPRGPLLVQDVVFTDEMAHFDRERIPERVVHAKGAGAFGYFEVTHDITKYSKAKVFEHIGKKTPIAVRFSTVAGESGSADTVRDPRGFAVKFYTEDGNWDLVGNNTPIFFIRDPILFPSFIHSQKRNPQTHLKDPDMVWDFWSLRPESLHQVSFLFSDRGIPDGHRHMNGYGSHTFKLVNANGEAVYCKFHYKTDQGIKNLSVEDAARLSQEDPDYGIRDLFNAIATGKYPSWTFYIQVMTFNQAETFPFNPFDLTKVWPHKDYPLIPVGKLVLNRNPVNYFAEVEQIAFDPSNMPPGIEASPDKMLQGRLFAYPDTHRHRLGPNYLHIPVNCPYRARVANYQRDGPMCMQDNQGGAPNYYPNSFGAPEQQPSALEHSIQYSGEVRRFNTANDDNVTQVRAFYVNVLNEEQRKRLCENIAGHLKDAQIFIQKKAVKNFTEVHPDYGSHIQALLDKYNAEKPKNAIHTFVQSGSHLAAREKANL
Text: as §1

cytochrome P-450 = test: PPHP as peroxidase substrate; type: biochemical
Text: as §1

Solubility of PPHP = type: physicochemical; conditions: aqueous buffers
Prostaglandin H Synthase = target: T3, Prostaglandin H Synthase (Ovis aries, UniProt P05979); test: Reducing substrate efficiency for PPHP reduction, conditions as for Table 1; type: biochemical
T3 sequence (P05979 25-600): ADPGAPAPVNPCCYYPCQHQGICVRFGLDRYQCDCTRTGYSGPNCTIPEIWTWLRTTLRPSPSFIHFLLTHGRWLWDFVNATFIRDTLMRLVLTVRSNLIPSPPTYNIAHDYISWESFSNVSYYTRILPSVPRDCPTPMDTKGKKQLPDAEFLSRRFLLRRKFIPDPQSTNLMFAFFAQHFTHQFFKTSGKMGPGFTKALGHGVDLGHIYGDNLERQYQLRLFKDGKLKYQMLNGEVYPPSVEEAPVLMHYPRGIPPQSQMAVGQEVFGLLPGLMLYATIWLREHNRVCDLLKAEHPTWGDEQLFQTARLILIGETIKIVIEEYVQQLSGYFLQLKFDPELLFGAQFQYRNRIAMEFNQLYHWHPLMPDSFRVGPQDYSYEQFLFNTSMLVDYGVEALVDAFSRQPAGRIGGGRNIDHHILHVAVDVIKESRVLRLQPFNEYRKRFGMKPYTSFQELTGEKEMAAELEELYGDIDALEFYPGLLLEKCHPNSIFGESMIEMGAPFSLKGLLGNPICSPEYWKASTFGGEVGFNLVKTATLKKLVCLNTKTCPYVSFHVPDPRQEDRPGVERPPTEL

Stability of PPHP = type: physicochemical; conditions: protected from light and metals
[1] = target: T4, Horseradish peroxidase (HRP) (Armoracia rusticana, UniProt P00433); test: Reducing substrate specificity assay (HRP-catalysed reduction of PPHP to PPA, HPLC); type: biochemical; conditions: for Index = concentration PPA/(concentration PPA+concentration PPHP): 100 microM PPHP, 0.1 M potassium citrate pH 5.5, 0.2 mM Tween-20, 25° C., 6 minutes, triplicate
T4 construct: purchased Sigma Chemical Corporation Type VI
T4 sequence (P00433 31-338 limits assumed): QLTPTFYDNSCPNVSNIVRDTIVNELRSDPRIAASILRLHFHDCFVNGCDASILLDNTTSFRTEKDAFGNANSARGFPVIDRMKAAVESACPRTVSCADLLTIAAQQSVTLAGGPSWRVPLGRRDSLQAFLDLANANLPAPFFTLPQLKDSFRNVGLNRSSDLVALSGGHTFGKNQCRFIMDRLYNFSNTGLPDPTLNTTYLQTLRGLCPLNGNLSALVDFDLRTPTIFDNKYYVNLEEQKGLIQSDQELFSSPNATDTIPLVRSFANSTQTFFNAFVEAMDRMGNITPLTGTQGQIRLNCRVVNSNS
Description: Incubations were performed in triplicate with a 25° C. shaker bath in 16×150 mm disposable glass test tubes. 60 nM HRP was incubated at 25° C. in 0.1 M potassium citrate buffer, […] containing 0.2 mM Tween 20, with 100 microM PPHP and 200 microM potential reducing substrate. The index value is defined as, Index=concentration PPA/(concentration PPA+concentration PPHP). Most reducing substrates were prepared daily as 8 mM stocks in either water, methanol, or methanol:water (1:1 v/v). DPBF was dissolved in acetone. Uric acid was dissolved in DMSO. Epinephrine required titration with dilute hydrochloric acid prior to dissolution in methanol. Indoleacetic acid, tryptophan, cysteine, and methionine were titrated with dilute potassium hydroxide prior to dissolution in methanol:water (1:1 v/v).
For the data in Table 1 hereinafter, reducing substrates (50 microliters of 8 mM stocks--see Table 1 for preparation) were transferred into 1.9 ml of 0.1 M potassium citrate buffer, pH 5.5, containing 0.2 mM Tween-20 and allowed to thermally equilibrate for 10 minutes. HRP (24 microl of a 5 microM stock) was added to each trial and preincubated for three minutes prior to the addition of PPHP (25 microl of 8 mM stock in methanol). Incubations were stopped at 6 minutes by pouring mixtures onto Baker SPE System columns (3 ml octyldecylsilyl, from J. T. Baker & Co.). The columns were prepared prior to use by passing 3×3 ml aliquots of water through the columns with the Baker SPE vacuum system. At the stop time, an individual trial was poured onto the column and aspirated to near dryness. Each individual trial was set aside until the reminder of the trials were treated in the same manner. After all incubation trials were partitioned onto the SPE columns, each individual incubation tube was washed with 2 ml of 0.2 mM Tween 20 in distilled water and poured onto the corresponding SPE column. This Tween 20/water wash was aspirated to near dryness with vacuum. Analytes were eluted into 12×76 mm disposable glass test tubes with 2×1 ml aliquots of methanol (HPLC grade, Fisher Scientific Co.). The sample collection rack for the Baker 10 SPE System was modified to accommodate these 12 mm diameter tubes. The SPE columns were aspirated dry at this point and discarded. An internal chromatographic standard of p-nitrobenzyl alcohol (25 microl of 8 mM stock solution in methanol) was added to each methanol eluent, mixed by vortexing, and then clarified by filtration through a 0.45 micron nylon Swinney type filter (Rainin Instrument Corp.). The filtered eluents were used directly for chromatographic analysis.
The Initial incubation conditions were 0.1 M potassium citrate buffer, pH 5.5, with 0.2 mM Tween 20, 200 microM reducing substrate, 60 nM HRP and […] PPHP (structure 1).
Quantitation was determined by adding an internal standard (p-nitrobenzyl alcohol: annotated as I.S. on chromatograms) and ratioing peak areas. Chromatograms are 40 microliters injections onto a 5 micron Zorbax octylsilyl reverse-phase column (DuPont Instrument Corp.) with an isocratic elution mobile of 56% v/v methanol in water at 2 ml per min. U.V. monitoring was with a fixed 254 nm detector (Varian 5000, Varian Instrument Corp.). Vertical numbers are associated with peak retention times in minutes (the integrator used was a Vista 402 System, Varian Instruments).
Analyte concentrations were calculated by an internal standard method of calculation. This required individual incubation chromatograms to be compared to a calibration chromatogram generated by chromatographing a 40 microliter sample aliquot of a solution of PPHP as described under calculations.

HRP compound II = target: T5, HRP compound II (Armoracia rusticana, UniProt P00433); conditions: pH 8.11; read-out: Km for the reaction with HRP compound II; cited from earlier work
T5 sequence (P00433 31-353): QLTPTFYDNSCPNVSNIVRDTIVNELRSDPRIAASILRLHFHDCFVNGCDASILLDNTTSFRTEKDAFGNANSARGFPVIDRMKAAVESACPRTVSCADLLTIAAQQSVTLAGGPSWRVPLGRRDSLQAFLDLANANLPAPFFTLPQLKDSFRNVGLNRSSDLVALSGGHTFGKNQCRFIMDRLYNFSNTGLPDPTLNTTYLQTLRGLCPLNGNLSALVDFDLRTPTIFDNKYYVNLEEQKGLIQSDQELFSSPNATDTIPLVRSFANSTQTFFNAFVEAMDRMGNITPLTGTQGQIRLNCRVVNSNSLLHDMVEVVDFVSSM

HRP isoenzymes = conditions: similar preparation of HRP isoenzymes, phenylperoxyacetic acid; cited from earlier work
HRP = target: T6, HRP (Armoracia rusticana, UniProt P00433); test: Steady-state kinetic assay (PPA production, SPE/HPLC); type: biochemical, horseradish; conditions: HRP with phenol as reducing substrate
T6 construct: purchased Sigma Chemical Corporation Type VI
T6 sequence (P00433 31-338 limits assumed): T4 sequence (P00433 31-338 limits assumed)
Description: The incubations were terminated at 2, 4, and 8 minutes by pouring the incubations onto SPE columns as described in Methods. […] The data points are the average of triplicates. […] All buffers contained 0.2 mM Tween-20. Incubations were stopped at 4 minutes by pouring onto SPE columns as described in Methods. Each data point is the average of triplicates. […] Incubations were stopped at 4 minutes by pouring on SPE columns as described in Methods. PPA concentrations were converted into velocities by dividing by the incubation time and assuming linear steady-state velocities over the first 8 minutes (see FIG. 3). Five replicates of each phenol concentration were assayed. Km and Vmax were determined by linear regression analysis upon the non-averaged data points.
We designed the assays with 4 minute termination times converting either the concentration of PPHP or PPA into velocities.

[2] = 60 nM HRP, 200 microM reducing substrate

Compound: OOCCC/C=C/c1ccccc1 [PPHP, 1-hydroperoxy-5-Phenyl-4-pentene]
- suitability as peroxidase substrate (glutathione peroxidase): excellent substrate
- suitability as peroxidase substrate (lactoperoxidase): excellent substrate
- suitability as peroxidase substrate (catalase): excellent substrate
- suitability as peroxidase substrate (cytochrome P-450): excellent substrate
- solubility (Solubility of PPHP): soluble in aqueous buffers
- suitability as peroxidase substrate (Prostaglandin H Synthase; protaglandin H (PGH) synthase): excellent substrate
- stability (Stability of PPHP): stable if protected from light and metals
- suitability as peroxidase substrate ([1]; HRP): excellent substrate

Compound: Cc1ccc(O)cc1 [p-cresol]
- Km (HRP compound II): ~180 µM

Compound: Oc1cccc(O)c1O [Pyrogallol, pyrogallol]
- Index = concentration PPA/(concentration PPA+concentration PPHP) [1, 2]: 0.97 ± 0.01
- turnover for pyrogallol oxidation (HRP isoenzymes): 18500 min⁻¹

Compound: Oc1ccccc1 [Phenol, phenol]
- Index of Efficiency of Reducing Substrates (Prostaglandin H Synthase; Prostaglandin H synthase, under the conditions for Table 1): .51
- turnover number of PHP reduction (HRP): 10500 min
- Index = concentration PPA/(concentration PPA+concentration PPHP) [1, 2]: 0.97 ± 0.01
- reducing substrate quality for HRP (FIG. 1) ([1]; 200 microM reducing substrate, 60 nM HRP, pH 5.5): good
